Consider 45 compounds from the Biogen ADME set (Fang et al. 2023).

In general, aqueous solubility refers to the concentration that dissolves in the medium under given conditions. A high value points to a readily soluble substance.

In brackets after ≈: the same amount, converted by molar mass.

The conditions of this data set: for aqueous solubility: pH 6.8.

As for `COc1cccc(Cc2cnc(N)s2)c1`, the MDR1-MDCK efflux ratio was 0.671; the intrinsic clearance, human liver microsomes stood at 17.8 mL/min/kg; the intrinsic clearance, rat liver microsomes was 281 mL/min/kg.

On to `CCCc1nc2nc(C)c(NS(=O)(=O)c3ccc(C4CCCCC4)cc3)c(O)n2n1`, for which the MDR1-MDCK efflux ratio stood at 50.3; the fraction unbound, human plasma was 0.00604; the fraction unbound, rat plasma is 0.00729; the intrinsic clearance, human liver microsomes is 169 mL/min/kg. This compound also came in with an aqueous solubility of 43.9 µg/mL (≈ 102 µM).

Take `Cc1ccc(-c2nnc(SCCn3cccn3)[nH]2)cc1`: the intrinsic clearance, human liver microsomes was 96.9 mL/min/kg; the intrinsic clearance, rat liver microsomes was 302 mL/min/kg; the aqueous solubility was 21.8 µg/mL (≈ 76.4 µM).

On to `COC(=O)Nc1ccc(Oc2nc3ccccc3o2)cc1`, for which the MDR1-MDCK efflux ratio is 0.543; the intrinsic clearance, human liver microsomes is not above 4.74 mL/min/kg; the intrinsic clearance, rat liver microsomes turned out to be 29.1 mL/min/kg; the aqueous solubility worked out at 22.2 µg/mL (≈ 78.1 µM).

Take `O=C(CC1CCN(c2ncc(Cl)cn2)CC1)N1CCOCC1`: the MDR1-MDCK efflux ratio stood at 0.764; the intrinsic clearance, human liver microsomes was not above 4.74 mL/min/kg; the intrinsic clearance, rat liver microsomes worked out at 46.9 mL/min/kg; the aqueous solubility was found to be 51.2 µg/mL (≈ 158 µM).

As to `COc1ccc(=O)n(Cc2noc3c2CCCC3)n1`, the MDR1-MDCK efflux ratio came to 0.806; the intrinsic clearance, human liver microsomes was found to be 11.4 mL/min/kg; the intrinsic clearance, rat liver microsomes was found to be 270 mL/min/kg.

`CCc1cc(N(C)Cc2ccc(N)nc2)nc(C)n1`: the MDR1-MDCK efflux ratio is 1.99; the intrinsic clearance, human liver microsomes is not above 4.74 mL/min/kg; the intrinsic clearance, rat liver microsomes was not above 10.7 mL/min/kg; the aqueous solubility is 36.5 µg/mL (≈ 142 µM).

Regarding `Cc1cc2occ(CC(=O)NC3CCN(C)CC3)c2cc1C(C)C`, the MDR1-MDCK efflux ratio turned out to be 6.32; the intrinsic clearance, human liver microsomes came out at 13.9 mL/min/kg; the intrinsic clearance, rat liver microsomes was found to be 407 mL/min/kg; the aqueous solubility stood at 34.4 µg/mL (≈ 105 µM).

For the compound `CCCCN(C)C(=O)Nc1cc(C)ccn1`, the MDR1-MDCK efflux ratio turned out to be 0.56; the intrinsic clearance, human liver microsomes worked out at 41.3 mL/min/kg; the intrinsic clearance, rat liver microsomes is 226 mL/min/kg; the aqueous solubility came out at 24.9 µg/mL (≈ 113 µM).

As for `Cc1nc2ncc3c(n2n1)CC(C)(C)CC3=O`, the MDR1-MDCK efflux ratio was found to be 0.814; the intrinsic clearance, human liver microsomes was not above 4.74 mL/min/kg; the intrinsic clearance, rat liver microsomes is not above 10.7 mL/min/kg.

Turning to `CCCCOc1ccccc1-c1cc(C(=O)NCc2ccccc2C)[nH]n1`, the MDR1-MDCK efflux ratio was 0.682 and the aqueous solubility was determined as 0.26 µg/mL (≈ 0.715 µM).

`c1cnc(NCc2cccc3cnccc23)nc1`: the intrinsic clearance, human liver microsomes came out at 60.5 mL/min/kg and the intrinsic clearance, rat liver microsomes is 178 mL/min/kg.

`Cc1nc(Cc2ccccc2)sc1C(=O)Nc1cccc(-c2ccn[nH]2)c1`: the MDR1-MDCK efflux ratio was 2.86; the intrinsic clearance, human liver microsomes worked out at 30.4 mL/min/kg; the intrinsic clearance, rat liver microsomes was 406 mL/min/kg.

With `CCOc1cccc(C(=O)Nc2ccc3c(c2)CCC(=O)N3C)c1`, the intrinsic clearance, human liver microsomes came to 12.2 mL/min/kg; the intrinsic clearance, rat liver microsomes was 53.6 mL/min/kg; the aqueous solubility turned out to be 9.14 µg/mL (≈ 28.2 µM).

Consider `Cn1c2cc(S(C)=O)sc2c2cnn(Cc3cccc(N)c3)c(=O)c21` (stereo not drawn), for which the intrinsic clearance, human liver microsomes was 4.92 mL/min/kg and the intrinsic clearance, rat liver microsomes is 49.6 mL/min/kg.

For `Cc1nccc(N(C)Cc2nc(-c3cccnc3)no2)n1`, the MDR1-MDCK efflux ratio turned out to be 0.87; the intrinsic clearance, human liver microsomes was 8.62 mL/min/kg; the intrinsic clearance, rat liver microsomes worked out at 200 mL/min/kg.

Regarding `CC1(C)CC[C@]2(NC(=O)C(C)(F)F)CC[C@]3(C)[C@H](C(=O)C=C4[C@@]5(C)C=C(C#N)C(=O)C(C)(C)[C@@H]5CC[C@]43C)[C@@H]2C1`, the MDR1-MDCK efflux ratio came out at 6.31; the fraction unbound, rat plasma stood at 0.0088; the intrinsic clearance, human liver microsomes stood at 76.7 mL/min/kg; the intrinsic clearance, rat liver microsomes amounted to 145 mL/min/kg.

In the case of `c1ccc(CCn2cnc3c2CCN(c2ncccn2)C3)cc1`, the MDR1-MDCK efflux ratio was 0.802; the intrinsic clearance, human liver microsomes is 206 mL/min/kg; the intrinsic clearance, rat liver microsomes was determined as 2510 mL/min/kg; the aqueous solubility amounted to 41 µg/mL (≈ 134 µM).

Take `Cc1cc(C(=O)N2CCC(C(=O)c3ccnn3C)CC2)sc1C`: the MDR1-MDCK efflux ratio was found to be 0.723; the intrinsic clearance, human liver microsomes stood at 36.7 mL/min/kg; the intrinsic clearance, rat liver microsomes was 957 mL/min/kg.

As for `Cc1ccc2nc(C)c(C(=O)NOCc3ccccc3)cc2c1`, the MDR1-MDCK efflux ratio is 0.666; the intrinsic clearance, human liver microsomes was 19.3 mL/min/kg; the intrinsic clearance, rat liver microsomes is 308 mL/min/kg; the aqueous solubility was determined as 20.2 µg/mL (≈ 65.8 µM).

In the case of `Cc1c(C(=O)NCCCN(C)C)sc2ncnc(Nc3ccc(F)cc3OC(C)C)c12`, the MDR1-MDCK efflux ratio amounted to 59.2; the fraction unbound, human plasma was determined as 0.0552; the fraction unbound, rat plasma came out at 0.0926; the intrinsic clearance, human liver microsomes is not above 4.74 mL/min/kg. Moreover, the intrinsic clearance, rat liver microsomes worked out at 52.4 mL/min/kg and the aqueous solubility came to 23.6 µg/mL (≈ 52.9 µM).

With `O=C(NCc1ccccn1)c1ccc(F)cc1Cl`, the MDR1-MDCK efflux ratio was determined as 0.596; the intrinsic clearance, human liver microsomes was not above 4.74 mL/min/kg; the intrinsic clearance, rat liver microsomes was not above 10.7 mL/min/kg; the aqueous solubility was found to be 39.2 µg/mL (≈ 148 µM).

For `Cc1cnc(-n2cnnc2)c(-c2cccc(Cl)c2Cl)c1`, the MDR1-MDCK efflux ratio amounted to 2.25; the intrinsic clearance, human liver microsomes amounted to 6.9 mL/min/kg; the intrinsic clearance, rat liver microsomes was determined as 165 mL/min/kg; the aqueous solubility came to 18.6 µg/mL (≈ 61 µM).

For `Cn1ncc2c(Oc3cccc(C(C)(C)C)c3)ncnc21`, the MDR1-MDCK efflux ratio stood at 0.48; the intrinsic clearance, human liver microsomes was 36.7 mL/min/kg; the intrinsic clearance, rat liver microsomes was 465 mL/min/kg; the aqueous solubility was determined as 3.9 µg/mL (≈ 13.8 µM).

`N#CCCn1ncnc1-c1cccc(C#N)c1` displayed an intrinsic clearance, human liver microsomes not above 4.74 mL/min/kg and an intrinsic clearance, rat liver microsomes not above 10.7 mL/min/kg.

On to `COc1ccc2c(c1)C=C(CN1CCC(c3cc(-c4ccc(N)nc4)cc(C)n3)CC1)CO2`, for which the MDR1-MDCK efflux ratio was 0.999; the intrinsic clearance, human liver microsomes worked out at 43.4 mL/min/kg; the intrinsic clearance, rat liver microsomes amounted to 169 mL/min/kg; the aqueous solubility was determined as 22.9 µg/mL (≈ 51.8 µM).

In the case of `CCCc1noc2nc(-c3ccncc3)cc(C(=O)O)c12`, the MDR1-MDCK efflux ratio was 0.841; the intrinsic clearance, human liver microsomes is not above 4.74 mL/min/kg; the intrinsic clearance, rat liver microsomes came out at 18.1 mL/min/kg.

Compound `NCCN1CCN(C/C=C/C(=O)N2CCC[C@@H](n3nc(-c4ccc(Oc5ccccc5)cc4)c4c(N)ncnc43)C2)CC1` came in with a fraction unbound, human plasma of 0.0501; a fraction unbound, rat plasma of 0.0486; an intrinsic clearance, human liver microsomes of 9.07 mL/min/kg; an intrinsic clearance, rat liver microsomes of 49.8 mL/min/kg. The compound also yielded an aqueous solubility of 30.2 µg/mL (≈ 51.9 µM).

As to `Cc1nc(CCN2C(=O)NC(C)(C)C2=O)cs1`, the MDR1-MDCK efflux ratio is 4.61; the intrinsic clearance, human liver microsomes is not above 4.74 mL/min/kg; the intrinsic clearance, rat liver microsomes came to 21.7 mL/min/kg; the aqueous solubility is 31.9 µg/mL (≈ 126 µM).

Consider `COc1cccc(Oc2ccc(NC(=O)CN3CCOCC3)cn2)c1`, for which the MDR1-MDCK efflux ratio was 1.26; the intrinsic clearance, human liver microsomes is not above 4.74 mL/min/kg; the intrinsic clearance, rat liver microsomes was found to be 138 mL/min/kg.

`N#Cc1c(Cl)nc(N)n1-c1ccccc1` yielded an intrinsic clearance, human liver microsomes of 11.7 mL/min/kg and an intrinsic clearance, rat liver microsomes of 27.7 mL/min/kg.

On to `c1ccc(C(c2ccccc2)c2noc(Cn3cnc(C4CC4)n3)n2)cc1`, for which the MDR1-MDCK efflux ratio came out at 1.14; the intrinsic clearance, human liver microsomes was determined as 38 mL/min/kg; the intrinsic clearance, rat liver microsomes amounted to 1510 mL/min/kg; the aqueous solubility was 26.3 µg/mL (≈ 73.6 µM).

For `Cc1ncsc1CCN1C(=O)NC2(CCCC2)C1=O`, the intrinsic clearance, human liver microsomes was not above 4.74 mL/min/kg and the intrinsic clearance, rat liver microsomes is 172 mL/min/kg.

Consider `Cc1cc(C)n(-c2cccc(NC(=O)c3ccc(F)c(F)c3)c2)n1`, for which the MDR1-MDCK efflux ratio stood at 0.649; the intrinsic clearance, human liver microsomes amounted to 31.3 mL/min/kg; the intrinsic clearance, rat liver microsomes turned out to be 353 mL/min/kg; the aqueous solubility was 1.61 µg/mL (≈ 4.92 µM).

`CC(=O)Nc1ccc(CNCCOc2ccc(F)cc2F)cc1`: the MDR1-MDCK efflux ratio worked out at 1.57; the intrinsic clearance, human liver microsomes amounted to 12.5 mL/min/kg; the intrinsic clearance, rat liver microsomes worked out at 114 mL/min/kg.

`Cc1cnc(Nc2ccc(OCCN3CCCC3)cc2)nc1Nc1cccc(S(=O)(=O)NC(C)(C)C)c1` registered an intrinsic clearance, human liver microsomes of 34.1 mL/min/kg and an intrinsic clearance, rat liver microsomes of 209 mL/min/kg.

As to `Fc1ccc(Nc2nc(N3CCCCC3)c3nccnc3n2)cc1`, the MDR1-MDCK efflux ratio came out at 0.305 and the aqueous solubility is 0.12 µg/mL (≈ 0.37 µM).

For the compound `CCCN1CCCN(C(=O)c2nc3ccccc3[nH]2)CC1`, the intrinsic clearance, human liver microsomes worked out at 19.2 mL/min/kg; the intrinsic clearance, rat liver microsomes was 169 mL/min/kg; the aqueous solubility is 49.4 µg/mL (≈ 172 µM).

In the case of `Cc1ccc(C)c(OCCN(C)C(=O)c2ccc3c(c2)nnn3C)c1`, the MDR1-MDCK efflux ratio is 1.23; the intrinsic clearance, human liver microsomes was 59.5 mL/min/kg; the intrinsic clearance, rat liver microsomes stood at 1030 mL/min/kg; the aqueous solubility came to 29.2 µg/mL (≈ 86.4 µM).

For the compound `Cc1nc(-c2ccc(C)c(O)c2)n(C(C)(C)C)n1`, the intrinsic clearance, human liver microsomes was not above 4.74 mL/min/kg; the intrinsic clearance, rat liver microsomes came out at 124 mL/min/kg; the aqueous solubility amounted to 12.1 µg/mL (≈ 49.3 µM).

Turning to `Cc1csc(Cc2nc(-c3ccc(O)cc3)no2)n1`, the MDR1-MDCK efflux ratio turned out to be 0.531; the intrinsic clearance, human liver microsomes stood at 15.1 mL/min/kg; the intrinsic clearance, rat liver microsomes came to 288 mL/min/kg.

In the case of `Fc1ccc2[nH]c(CO[C@H]3CN(Cc4ccccc4)C[C@H]3F)nc2c1`, the MDR1-MDCK efflux ratio was 0.885; the intrinsic clearance, human liver microsomes worked out at 88.9 mL/min/kg; the intrinsic clearance, rat liver microsomes came to 971 mL/min/kg; the aqueous solubility is 35.4 µg/mL (≈ 103 µM).

Regarding `Cc1ccc(C)c(S(=O)(=O)N2CCCN(CCn3cccn3)CC2)c1`, the MDR1-MDCK efflux ratio was found to be 1.14; the intrinsic clearance, human liver microsomes came to 207 mL/min/kg; the intrinsic clearance, rat liver microsomes came to 2010 mL/min/kg; the aqueous solubility is 30.5 µg/mL (≈ 84.1 µM).

Turning to `COc1cc2c(cc1OC)CN(C(=O)C1CCCN(C(=O)Nc3ccccc3)C1)CC2` (stereo not drawn), the MDR1-MDCK efflux ratio was 27; the intrinsic clearance, human liver microsomes is not above 4.74 mL/min/kg; the intrinsic clearance, rat liver microsomes is 65.1 mL/min/kg; the aqueous solubility is 65.5 µg/mL (≈ 155 µM).

The compound `Cc1noc(-c2ccccc2C(=O)O)n1` displayed an intrinsic clearance, human liver microsomes not above 4.74 mL/min/kg; an intrinsic clearance, rat liver microsomes not above 10.7 mL/min/kg; an aqueous solubility of 35.3 µg/mL (≈ 173 µM).
